27 compounds from patent publication US20220289691A1, “5-AMINO-SUBSTITUTED PYRAZOLES AND TRIAZOLES AS PEST CONTROL AGENTS” (Bayer Aktiengesellschaft, priority 2019, published 2022) can be followed below.

Test [1] has as its system Spodoptera frugiperda. Briefly: Spodoptera frugiperda spray test. Type of test: in vivo. Particulars: foliar, 168 h, maize leaf discs, after 7 days, read-out: efficacy (caterpillars killed). Here is the method: Spodoptera frugiperda—Spray Test Solvent: 78.0 parts by weight of acetone • • 1.5 parts by weight of dimethylformamide Emulsifier: alkylaryl polyglycol ether
(§1) To produce a suitable active compound formulation, 1 part by weight of active compound is dissolved using the stated parts by weight of solvent and made up with water containing an emulsifier concentration of 1000 ppm until the desired concentration is attained. To produce further test concentrations, the formulation is diluted with emulsifier-containing water.
Leaf discs of maize (Zea mays) are sprayed with an active compound formulation of the desired concentration and, after drying, populated with caterpillars of the fall armyworm (Spodoptera frugiperda).
After 7 days, the efficacy in % is determined. 100% means that all the caterpillars have been killed; 0% means that no caterpillar has been killed.

Test [2] has as its system Diabrotica balteata. Briefly: Diabrotica balteata spray test. Conditions: 168 h, beetle larvae on wheat, after 7 days, read-out: efficacy (wheat plant growth); for pest or weed control at 100 g/ha: 100 g/ha (=32 μg/cavity); for pest or weed control at 125 g/ha: 125 g/ha (=40 μg/cavity); for pest or weed control at 500 g/ha: 500 g/ha (=160 μg/cavity). Format: in vivo. Here is the method:
Diabrotica balteata—Spray Test Solvent: 78 parts by weight of acetone • • 1.5 parts by weight of dimethylformamide Emulsifier: alkylaryl polyglycol ether
as §1
Pre-swollen wheat grains (Triticum aestivum) are incubated in a multiwell plate filled with agar and a little water for one day (5 seed grains per cavity). The germinated wheat grains are sprayed with an active compound formulation of the desired concentration. Subsequently, each cavity is infected with 10-20 beetle larvae of Diabrotica balteata.
After 7 days, the efficacy in % is determined. 100% means that all wheat plants have grown as in the untreated, uninfected control; 0% means that no wheat plant has grown.

On to `CC(C)c1ccccc1N1C(=O)CSC1=NN=Cc1ccc(-c2nc(NC3CCOCC3)n(-c3ccc(OC(F)(F)F)cc3)n2)cc1` [Compound I-087], for which the pest or weed control at 100 g/ha in test [1] and in test [2] was 100% in each case.

`COCCNc1nc(-c2ccc(NC(=O)N=C3SCC(=O)N3c3ccccc3C(C)C)cc2)nn1-c1ccc(OC(F)(F)F)cc1` [Compound I-080]: the pest or weed control at 100 g/ha in test [1] and in test [2] was 100% throughout.

As for `CNc1nc(-c2ccc(C=NN=C3SCC(=O)N3c3ccccc3C(C)C)cc2)nn1-c1ccc(OC(F)(F)F)cc1` [Compound I-024], in test [1], the pest or weed control at 100 g/ha came to 100%. In addition, in test [2], the pest or weed control at 125 g/ha was found to be 100% and the pest or weed control at 500 g/ha was determined as 100%.

As to `CNc1nc(-c2ccc(C=NN=C3SCCCN3c3ccccc3C(C)C)cc2)nn1-c1ccc(OC(F)(F)C(F)(F)F)cc1` [Compound I-126, 3-[4-({[3-(2-isopropylphenyl)-1,3-thiazinan-2-yliden]hydrazono}methyl)phenyl]-N-methyl-1-[4-(pentafluoroethoxy)phenyl]-1H-1,2,4-triazol-5-amine], the pest or weed control at 100 g/ha in test [1] and in test [2] was 100% each time.

As for `CC(=O)Nc1cc(-c2ccc(C=NN=C3SCC(=O)N3c3ccccc3C(C)C)cc2)nn1-c1ccc(OC(F)(F)F)cc1` [Compound I-039], the pest or weed control at 100 g/ha turned out to be 100% in test [1] and 80% in test [2].

On to `CNc1nc(-c2ccc(C=NN=C3SCC(=O)N3c3ccccc3C(C)C)cc2Cl)nn1-c1ccc(OC(F)(F)F)cc1` [Compound I-112], for which the pest or weed control at 100 g/ha in test [1] and in test [2] was 100% each time.

On to `CC(C)c1ccccc1NC(=S)NN=Cc1ccc(-c2nc(NC3CSC3)n(-c3ccc(OC(F)(F)C(F)(F)F)cc3)n2)cc1` [Compound I-100], for which the pest or weed control at 100 g/ha in test [1] and in test [2] was 100% each time.

For the compound `CNc1nc(-c2c(F)cc(C=NN=C3SCC(=O)N3c3ccccc3C(C)C)cc2F)nn1-c1ccc(OC(F)(F)F)cc1` [Compound I-122], the pest or weed control at 100 g/ha in test [1] and in test [2] was 100% in each case.

On to `CC(C)c1ccccc1N1C(=O)CSC1=NC(=O)Nc1ccc(-c2nc(NC(=O)C3CC3)n(-c3ccc(OC(F)(F)F)cc3)n2)cc1` [Compound I-035], for which the pest or weed control at 100 g/ha in test [1] worked out at 100%. Moreover, in test [2], the pest or weed control at 100 g/ha was found to be 80% and the pest or weed control at 500 g/ha was 100%.

Take `CCS(=O)(=O)Nc1nc(-c2ccc(C=NNC(=S)Nc3ccccc3C(C)C)cc2)nn1-c1ccc(OC(F)(F)F)cc1` [Compound I-022]: in test [1], the pest or weed control at 100 g/ha was 100%. Besides, in test [2], the pest or weed control at 125 g/ha turned out to be 100% and the pest or weed control at 500 g/ha turned out to be 100%.

Regarding `CNc1nc(-c2ccc(NC(=O)N=C3SCC(=O)N3c3ccccc3C(C)C)cc2)nn1-c1ccc(OC(F)(F)C(F)(F)F)cc1` [Compound I-027], in test [1], the pest or weed control at 100 g/ha is 100%. In addition, in test [2], the pest or weed control at 125 g/ha is 100% and the pest or weed control at 500 g/ha was found to be 100%.

Take `C=CCNc1nc(-c2ccc(C=NNC(=S)Nc3ccccc3C(C)C)cc2)nn1-c1ccc(OC(F)(F)F)cc1` [Compound I-071]: the pest or weed control at 100 g/ha in test [1] and in test [2] was 100% each time.

For the compound `CNc1nc(-c2ccc(C=NNC(=S)Nc3cc(C)ccc3C(C)C)cc2)nn1-c1ccc(OC(F)(F)F)cc1` [Compound I-070], the pest or weed control at 100 g/ha in test [1] and in test [2] was 100% throughout.

For the compound `CCC(=O)Nc1nc(-c2ccc(NC(=O)N=C3SCC(=O)N3c3ccccc3C(C)C)cc2)nn1-c1ccc(OC(F)(F)F)cc1` [Compound I-036], the figures for the pest or weed control at 100 g/ha in test [1] and in test [2] were 100% and 80%, respectively. In addition, the pest or weed control at 500 g/ha in test [2] stood at 100%.

On to `CC(=O)Nc1cc(-c2ccc(C=NNC(=S)Nc3ccccc3C(C)C)cc2)nn1-c1ccc(OC(F)(F)F)cc1` [Compound I-040], for which the pest or weed control at 100 g/ha in test [1] was 100%. Besides, in test [2], the pest or weed control at 100 g/ha turned out to be 80% and the pest or weed control at 500 g/ha was determined as 100%.

Regarding `CNc1cc(-c2ccc(C=NN=C3SCC(=O)N3c3ccccc3C(C)C)cc2)nn1-c1ccc(OC(F)(F)F)cc1` [Compound I-106], the pest or weed control at 100 g/ha in test [1] and in test [2] was 100% throughout.

`CC(C)c1ccccc1NC(=S)NN=Cc1ccc(-c2nc(/N=C/N(C)C)n(-c3ccc(OC(F)(F)F)cc3)n2)cc1` [Compound I-061]: the pest or weed control at 100 g/ha in test [1] is 100%; in test [2], 80%. The pest or weed control at 500 g/ha in test [2] is 80%.

With `CCOC(=O)C(=O)Nc1nc(-c2ccc(NC(=O)N=C3SCC(=O)N3c3ccccc3C(C)C)cc2)nn1-c1ccc(OC(F)(F)F)cc1` [Compound I-037], in test [1], the pest or weed control at 100 g/ha is 83%. For the same compound, in test [2], the pest or weed control at 100 g/ha amounted to 80% and the pest or weed control at 500 g/ha was determined as 100%.

Regarding `CC(C)c1ccccc1N1C(=O)CSC1=NN=Cc1ccc(-c2nc(NCCS(C)(=O)=O)n(-c3ccc(OC(F)(F)F)cc3)n2)cc1` [Compound I-095], the pest or weed control at 100 g/ha in test [1] and in test [2] was 100% throughout.

In the case of `CNc1nc(-c2ccc(C=NN=c3scc(C)n3-c3ccccc3C(C)C)cc2)nn1-c1ccc(OC(F)(F)C(F)(F)F)cc1` [Compound I-127], the pest or weed control at 100 g/ha in test [1] and in test [2] was 100% each time.

On to `CCNc1nc(-c2ccc(NC(=O)N=C3SCC(=O)N3c3ccccc3C(C)C)cc2)nn1-c1ccc(OC(F)(F)F)cc1` [Compound I-042], for which the pest or weed control at 100 g/ha in test [1] and in test [2] was 100% each time.

For the compound `CC(C)c1ccccc1N1C(=O)CSC1=NC(=O)Nc1ccc(-c2nc(NC3CCOC3)n(-c3ccc(OC(F)(F)F)cc3)n2)cc1` (stereo not drawn) [Compound I-045], the pest or weed control at 100 g/ha in test [1] and in test [2] was 100% in each case. Further, the pest or weed control at 500 g/ha in test [1] (500 g/ha) and in test [2] was 100% in each case.

In the case of `CC(C)c1ccccc1N1C(=O)CSC1=NC(=O)Nc1ccc(-c2nc(NC3CCC3)n(-c3ccc(OC(F)(F)F)cc3)n2)cc1` [Compound I-041], the pest or weed control at 100 g/ha in test [1] and in test [2] was 100% throughout. Also, the pest or weed control at 500 g/ha in test [2] was 100%.

Take `CNc1nc(-c2ccc(C=NN=C3SCC(=O)N3c3ccccc3C(C)C)cc2F)nn1-c1ccc(OC(F)(F)F)cc1` [Compound I-110]: the pest or weed control at 100 g/ha in test [1] and in test [2] was 100% in each case.

Turning to `CNC(=O)Nc1nc(-c2ccc(NC(=O)N=C3SCC(=O)N3c3ccccc3C(C)C)cc2)nn1-c1ccc(OC(F)(F)F)cc1` [Compound I-030], in test [1], the pest or weed control at 100 g/ha was 100%. Besides, in test [2], the pest or weed control at 500 g/ha was 100%.

As to `CC(=O)NCCNc1nc(-c2ccc(NC(=O)N=C3SCC(=O)N3c3ccccc3C(C)C)cc2)nn1-c1ccc(OC(F)(F)F)cc1` [Compound I-033], the pest or weed control at 100 g/ha in test [1] came out at 100%. In test [2], the pest or weed control at 125 g/ha amounted to 100% and the pest or weed control at 500 g/ha came out at 100%.

`CNc1nc(-c2ccc(C=NN=C3SCC(=O)N3c3ccccc3C(C)C)nc2)nn1-c1ccc(OC(F)(F)F)cc1` [Compound I-118]: the pest or weed control at 100 g/ha in test [1] and in test [2] was 100% throughout.
